IC50 data for 15 molecules are collected here from patent US9045468B2, “2,5-methano- and 2,5-ethano-tetrahydrobenzazepine derivatives and use thereof to block reuptake of norepinephrine, dopamine, and serotonin” (Albany Molecular Research, Inc., priority 2010, dated 2015).

Assay [1] has as its target hDAT (Homo sapiens (Human), UniProt Q01959). Briefly: DAT radioligand binding assay ([125I]RTI-55, HEK-293 membranes). As for the experimental part:
(§1) Recombinant HEK-293 cells expressing either the hSERT, hDAT, or hNET proteins were harvested from T-175 flasks as follows. The medium was removed from the flasks and the cells rinsed with HBSS without Ca and without Mg. The cells were then incubated for 5-10 minutes in 10 mM Tris-Cl, pH 7.5, 5 mM EDTA before the cells were lifted with a combination of pipetting and scraping, as needed. The cell suspension was collected into centrifuge bottles and homogenized for 30 seconds with a Polytron homogenizer. The suspension was centrifuged for 30 minutes at 32,000×g, 4° C. The supernatant was decanted and the pellet resuspended and homogenized in 50 mM Tris-Cl, pH 7.5, 1 mM EDTA for 10 seconds. The suspension was then centrifuged again for 30 minutes at 32,000×g, 4° C. The supernatant was decanted and the pellet resuspended in 50 mM Tris-Cl, pH 7.5, 1 mM EDTA and briefly homogenized. A Bradford assay (Bio-rad) was performed and the membrane preparation diluted to 2 mg/ml with 50 mM Tris-Cl, pH 7.5, 1 mM EDTA. Aliquots were prepared, and then frozen and stored at −80° C.
Compounds were dissolved in 100% DMSO at a concentration 100 times the desired highest assay concentration, serially diluted 1:3 in 100% DMSO, and 0.4 μl/well of each solution was dispensed to a Nunc polypropylene, round bottom, 384-well plate. […] 20 ul/well of a 2× membrane preparation (12.5 μg/ml in 30 mM sodium phosphate buffer, pH 7.9 at 4° C.) and 20 μl/well of a 2× radioligand solution (250 pM [^125I]RTI-55 in 30 mM sodium phosphate buffer, pH 7.9 at 4° C.) were added to the well and the reaction incubated for 1 hour at room temperature. The contents of the assay plate were then transferred to a Millipore MultiscreenHTS GF/B filter plate which was pretreated with 0.5% PEI for at least one hour. The plate was vacuum-filtered and washed with 7 washes of 100 μl/well 50 mM Tris-Cl, pH 7.5, 120 mM NaCl, 5 mM KCl chilled to 4° C. The filtration and washing were completed in less than 90 seconds. The plates were air-dried overnight, 12 μl/well of MicroScint scintillation fluid added, and the plates counted in a Trilux.
(§2) Each plate was run in triplicate, and the concentration response curve thus generated was fit using the four-parameter dose response equation, Y=Bottom+(Top-Bottom)/(1+10^((Log IC50−X)*HillSlope)) in order to determine the IC50 value for each compound. The radioligand concentration chosen for each assay corresponds to the Kd concentration determined through saturation binding analysis for each assay.

Assay [2] deals with hSERT (Homo sapiens (Human), UniProt P31645). As to the kind of experiment: SERT radioligand binding assay ([125I]RTI-55, HEK-293 membranes). As for the experimental part:
as §1, with “The” for “Recombinant HEK-293 cells expressing either the hSERT, hDAT, or hNET proteins were harvested from T-175 flasks as follows. The”
Compounds were dissolved in 100% DMSO at a concentration 100 times the desired highest assay concentration, serially diluted 1:3 in 100% DMSO, and 0.4 μl/well of each solution was dispensed to a Nunc polypropylene, round bottom, 384-well plate. […] The contents of the assay plate were then transferred to a Millipore MultiscreenHTS GF/B filter plate which was pretreated with 0.5% PEI for at least one hour. The plate was vacuum filtered and washed with 7 washes of […] 50 mM Tris-Cl, pH 7.5, 120 mM NaCl, 5 mM KCl chilled to 4° C. The filtration and washing were completed in less than 90 seconds. The plates were air-dried overnight, 12 μl/well of MicroScint scintillation fluid added, and the plates counted in a Trilux.
as §2

Assay [3] concerns the target hNET (Homo sapiens (Human), UniProt P23975). Briefly: NET radioligand binding assay ([3H]nisoxetine, HEK-293 membranes). Conditions: recombinant HEK-293 membranes, [3H]nisoxetine; read-out: Binding Affinity (IC50, nM) NET. The procedure:
as §1, with “The” for “Recombinant HEK-293 cells expressing either the hSERT, hDAT, or hNET proteins were harvested from T-175 flasks as follows. The”
Compounds were dissolved in 100% DMSO at a concentration 100 times the desired highest assay concentration, serially diluted 1:3 in 100% DMSO, and 1.0 μl/well of each solution was dispensed to a Nunc polypropylene, round bottom, 384-well plate. […] 50 μl/well of a 2× membrane preparation (0.4 mg/ml in 50 mM Tris-Cl, pH 7.5, 120 mM NaCl, 5 mM KCl) and 50 μl/well of a 2× radioligand solution (4 nM [^3H]nisoxetine in 50 mM Tris-Cl, pH 7.5, 120 mM NaCl, 5 mM KCl) were added to the well and the reaction incubated for 1 hour at room temperature. The contents of the assay plate were then transferred to a Millipore MultiscreenHTS GF/B filter plate which was pretreated with 0.5% PEI for at least one hour. The plate was vacuum filtered and washed with 7 washes of 100 μl/well 50 mM Tris-Cl, pH 7.5, 120 mM NaCl, 5 mM KCl chilled to 4° C. The filtration and washing were completed in less than 90 seconds. The plates were air-dried overnight, 12 μl/well of MicroScint scintillation fluid added, and the plates counted in a Trilux.
as §2

Where [4] appears, read: recombinant HEK-293 membranes, [125I]RTI-55, read-out: Binding Affinity (IC50, nM) DAT.
[5] abbreviates: recombinant HEK-293 membranes, [125I]RTI-55, read-out: Binding Affinity (IC50, nM) SERT.

Where two headings read alike, the source gives them in different places.

Sequence of hSERT (P31645 whole entry): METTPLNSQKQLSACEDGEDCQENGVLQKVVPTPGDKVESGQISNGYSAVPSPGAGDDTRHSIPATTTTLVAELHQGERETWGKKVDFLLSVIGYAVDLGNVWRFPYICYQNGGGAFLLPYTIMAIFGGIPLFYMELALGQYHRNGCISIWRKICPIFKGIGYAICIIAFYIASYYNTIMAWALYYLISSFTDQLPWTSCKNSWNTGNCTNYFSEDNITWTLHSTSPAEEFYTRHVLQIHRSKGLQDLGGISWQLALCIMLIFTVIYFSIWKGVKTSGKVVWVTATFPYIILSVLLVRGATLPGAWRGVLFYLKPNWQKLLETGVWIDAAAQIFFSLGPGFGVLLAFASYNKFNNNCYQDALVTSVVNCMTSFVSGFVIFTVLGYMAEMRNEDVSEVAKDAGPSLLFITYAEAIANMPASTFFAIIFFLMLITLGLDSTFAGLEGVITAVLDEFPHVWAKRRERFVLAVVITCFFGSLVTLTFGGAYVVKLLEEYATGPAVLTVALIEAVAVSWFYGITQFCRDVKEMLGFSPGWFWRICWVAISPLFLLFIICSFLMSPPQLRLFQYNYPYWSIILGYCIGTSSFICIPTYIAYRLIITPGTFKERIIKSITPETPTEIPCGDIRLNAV
Sequence of hDAT (Q01959 whole entry): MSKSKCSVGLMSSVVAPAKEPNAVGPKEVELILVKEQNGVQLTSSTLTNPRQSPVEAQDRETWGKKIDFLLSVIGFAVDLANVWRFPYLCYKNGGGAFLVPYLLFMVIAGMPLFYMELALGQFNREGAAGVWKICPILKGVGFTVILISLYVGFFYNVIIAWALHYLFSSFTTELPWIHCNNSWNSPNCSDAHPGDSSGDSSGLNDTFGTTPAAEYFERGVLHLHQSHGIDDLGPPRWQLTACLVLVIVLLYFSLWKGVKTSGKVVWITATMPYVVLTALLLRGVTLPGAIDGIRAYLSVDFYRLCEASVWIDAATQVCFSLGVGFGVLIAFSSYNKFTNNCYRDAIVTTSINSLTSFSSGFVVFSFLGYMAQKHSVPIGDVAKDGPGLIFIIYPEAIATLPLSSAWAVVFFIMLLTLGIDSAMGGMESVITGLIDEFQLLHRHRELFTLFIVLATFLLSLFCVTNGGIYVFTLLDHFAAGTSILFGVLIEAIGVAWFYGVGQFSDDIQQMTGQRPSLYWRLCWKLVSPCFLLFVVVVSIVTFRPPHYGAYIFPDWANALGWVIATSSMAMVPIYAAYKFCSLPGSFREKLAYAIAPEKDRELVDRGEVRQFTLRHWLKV
Sequence of hNET (P23975 whole entry): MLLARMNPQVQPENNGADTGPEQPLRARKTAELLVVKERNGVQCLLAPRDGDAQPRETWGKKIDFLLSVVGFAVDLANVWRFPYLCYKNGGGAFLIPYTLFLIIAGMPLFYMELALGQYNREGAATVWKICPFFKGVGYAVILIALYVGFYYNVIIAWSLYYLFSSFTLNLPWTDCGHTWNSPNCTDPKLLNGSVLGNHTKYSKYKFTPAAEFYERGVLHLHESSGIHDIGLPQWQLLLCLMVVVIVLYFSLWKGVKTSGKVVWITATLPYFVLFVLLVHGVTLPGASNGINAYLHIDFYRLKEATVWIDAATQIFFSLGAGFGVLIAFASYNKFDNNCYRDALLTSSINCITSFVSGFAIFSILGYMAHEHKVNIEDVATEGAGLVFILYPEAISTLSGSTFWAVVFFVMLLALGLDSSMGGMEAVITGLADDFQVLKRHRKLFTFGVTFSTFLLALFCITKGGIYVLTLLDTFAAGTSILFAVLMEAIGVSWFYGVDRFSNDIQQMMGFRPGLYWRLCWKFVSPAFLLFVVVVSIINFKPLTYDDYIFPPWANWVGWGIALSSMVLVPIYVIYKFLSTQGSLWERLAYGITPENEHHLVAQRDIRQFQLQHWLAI

Broadly, the IC50 is the point on the concentration scale where inhibition reaches its midpoint. With `Clc1ccc(C23CCN(CC2)Cc2cc(Oc4cnccn4)ccc23)cc1` [Example 33, 5-(4-chlorophenyl)-2,5-ethano-8-(pyrazin-2-yloxy)-2,3,4,5-tetrahydro-1H-benzo[c]azepine], the IC50 in assay [1] (setting [4]) was 116 nM; in assay [2] (setting [5]), 6.1 nM; in assay [3], 910 nM.

In the case of `Clc1ccc(C23CCN(CC2)Cc2cc(Oc4cnccn4)ccc23)cc1Cl` [Example 44, 5-(3,4-dichlorophenyl)-2,5-ethano-8-(pyrazin-2-yloxy)-2,3,4,5-tetrahydro-1H-benzo[c]azepine], the IC50 in assay [1] (setting [4]) is 33.9 nM; in assay [2] (setting [5]), 4.7 nM; in assay [3], 161 nM.

With `O=c1[nH]c2ccc(-c3ccc4c(c3)CN3CCC4(c4ccc(Cl)c(Cl)c4)C3)cc2o1` (single isomer, unassigned) [11(−), 8-(2-oxo-2,3-dihydrobenzo[d]oxazol-6-yl)-5-(3,4-dichlorophenyl)-2,5-methano-2,3,4,5-tetrahydro-1H-benzo[c]azepine], the IC50 in assay [1] (setting [4]) was determined as 19.6 nM; in assay [2] (setting [5]), 3.9 nM; in assay [3] it was 92.4 nM.

In the case of `Clc1ccc(C23CCN(Cc4cc(-c5ccc6ncnn6c5)ccc42)C3)cc1Cl` (single isomer, unassigned) [10(−), 8-([1,2,4]triazolo[1,5-a]pyridin-6-yl)-5-(3,4-dichlorophenyl)-2,5-methano-2,3,4,5-tetrahydro-1H-benzo[c]azepine], the IC50 came out at 37.5 nM in assay [1] (setting [4]), 5.6 nM in assay [2] (setting [5]) and 73.7 nM in assay [3].

As to `Clc1ccc(C23CCN(CC2)Cc2cc(-c4cncnc4)ccc23)cc1` [Example 16, 5-(4-chlorophenyl)-2,5-ethano-8-(pyrimidin-5-yl)-2,3,4,5-tetrahydro-1H-benzo[c]azepine], the IC50 came to 156 nM in assay [1] (setting [4]), 7.3 nM in assay [2] (setting [5]) and 2930 nM in assay [3].

For `Oc1ccc(-c2ccc3c(c2)CN2CCC3(c3ccc(Cl)cc3)C2)nn1` (single isomer, unassigned) [7(+), 6-(5-(4-chlorophenyl)-2,5-methano-2,3,4,5-tetrahydro-1H-benzo[c]azepin-8-yl)pyridazin-3-ol], the concentration for half-maximal inhibition (IC50) in assay [1] (setting [4]) was 148 nM; in assay [2] (setting [5]) it was 62.5 nM; in assay [3], 674 nM.

As to `Clc1ccc(C23CCN(Cc4cc(-c5ccc6ncnn6c5)ccc42)C3)cc1` (single isomer, unassigned) [3(−), 8-([1,2,4]triazolo[1,5-a]pyridin-6-yl)-5-(4-chlorophenyl)-2,5-methano-2,3,4,5-tetrahydro-1H-benzo[c]azepine], the IC50 came out at 141 nM in assay [1] (setting [4]), 5.2 nM in assay [2] (setting [5]) and 443 nM in assay [3].

`Fc1ccc(C23CCN(CC2)Cc2cc(Oc4ccc(C(F)(F)F)nn4)ccc23)cc1F` [Example 51, 5-(3,4-difluorophenyl)-2,5-ethano-8-(6-(trifluoromethyl)pyridazin-3-yloxy)-2,3,4,5-tetrahydro-1H-benzo[c]azepine]: the IC50 stood at 63.2 nM in assay [1] (setting [4]), 20.2 nM in assay [2] (setting [5]) and 231 nM in assay [3].

Turning to `Cc1nnc(-c2ccc3c(c2)CN2CCC3(c3ccc(Cl)cc3)CC2)s1` [Example 25, 2-(5-(4-chlorophenyl)-2,5-ethano-2,3,4,5-tetrahydro-1H-benzo[c]azepin-8-yl)-5-methyl-1,3,4-thiadiazole], the IC50 in assay [1] (setting [4]) came out at 169 nM; in assay [2] (setting [5]), 6.4 nM; in assay [3] it was 392 nM.

Consider `FC(F)(F)c1ccc(-c2ccc3c(c2)CN2CCC3(c3ccc(Cl)cc3)CC2)nn1` [Example 15, 5-(4-chlorophenyl)-2,5-ethano-8-(6-(trifluoromethyl)pyridazin-3-yl)-2,3,4,5-tetrahydro-1H-benzo[c]azepine], for which the results for the half-maximal inhibitory concentration (IC50) in assay [1], in assay [2] and in assay [3] were 121 nM, 2.6 nM and 384 nM, respectively.

In the case of `FC(F)Oc1ccc(-c2ccc3c(c2)CN2CCC3(c3ccc(Cl)cc3)C2)nn1` (single isomer, unassigned) [6(+), 5-(4-chlorophenyl)-8(6-(difluoromethoxy)pyridazin-3-yl)-2,5-methano-2,3,4,5-tetrahydro-1H-benzo[c]azepine], the IC50 is 1060 nM in assay [1] (setting [4]), 19.3 nM in assay [2] (setting [5]) and 1170 nM in assay [3].

For `FC(F)(F)c1ccc(Oc2ccc3c(c2)CN2CCC3(c3cccc(Cl)c3)CC2)nn1` [Example 49, 5-(3-chlorophenyl)-2,5-ethano-8-(6-(trifluoromethyl)pyridazin-3-yloxy)-2,3,4,5-tetrahydro-1H-benzo[c]azepine], the values for the IC50 in assay [1] (setting [4]), in assay [2] (setting [5]) and in assay [3] were 55.9 nM, 24.2 nM and 451 nM, respectively.

For `Clc1ccc(C23CCN(CC2)Cc2cc(OCCCc4cccnc4)ccc23)cc1` [Example 36, 5-(4-chlorophenyl)-2,5-ethano-8-(3-(pyridin-3-yl)propoxy)-2,3,4,5-tetrahydro-1H-benzo[c]azepine], the IC50 was found to be 65.7 nM in assay [1] (setting [4]), 1.2 nM in assay [2] (setting [5]) and 62.3 nM in assay [3].

Take `FC(F)Oc1ccc2c(c1)CN1CCC2(c2ccc(Cl)c(Cl)c2)CC1` [Example 46, 5-(3,4-dichlorophenyl)-2,5-ethano-8-(difluoromethoxy)-2,3,4,5-tetrahydro-1H-benzo[c]azepine]: the IC50 in assay [1] (setting [4]) was found to be 55.2 nM; in assay [2] (setting [5]), 3 nM; in assay [3], 140 nM.

In the case of `Fc1ccc(C23CCN(Cc4cc(-c5ccc6ncnn6c5)ccc42)C3)cc1Cl` (single isomer, unassigned) [55(+), 8-([1,2,4]triazolo[1,5-a]pyridin-6-yl)-5-(3-chloro-4-fluorophenyl)-2,5-methano-2,3,4,5-tetrahydro-1H-benzo[c]azepine], the IC50 in assay [1] (setting [4]) turned out to be 121 nM; in assay [2] (setting [5]), 18.6 nM; in assay [3], 956 nM.
